According to patent US9145392B2, “Imidazole amines as modulators of kinase activity” (Merck Patent GmbH, priority 2011, dated 2015):

Legend:
P70S6K (T412E mutant) = P70S6K (T412E mutant) (Homo sapiens (Human), UniProt P23443, T412E); experiment: P70S6K enzyme assay; type: biochemical; conditions: read-out: IC50 p70S6K
Protocol: P70S6K inhibitor compounds are diluted and plated in 96 well plates. […] The reaction is incubated for 90 min at 25° C., before the addition of 10 mM EDTA to stop the reaction. The proportion of substrate and product (phosphorylated) peptide is analysed on a Caliper Life Sciences Lab Chip 3000, using a pressure of −1.4 psi, and upstream and downstream voltages of −3000 and −700 respectively. Product peaks are resolved before substrate peaks on the resulting chromatograms.

His-AKT (Full Length) = His-AKT (Full Length) (Homo sapiens (Human), UniProt P31749); experiment: AKT enzyme assay; type: biochemical; conditions: read-out: IC50 AKT
Sequence of His-AKT (Full Length) (P31749 whole entry): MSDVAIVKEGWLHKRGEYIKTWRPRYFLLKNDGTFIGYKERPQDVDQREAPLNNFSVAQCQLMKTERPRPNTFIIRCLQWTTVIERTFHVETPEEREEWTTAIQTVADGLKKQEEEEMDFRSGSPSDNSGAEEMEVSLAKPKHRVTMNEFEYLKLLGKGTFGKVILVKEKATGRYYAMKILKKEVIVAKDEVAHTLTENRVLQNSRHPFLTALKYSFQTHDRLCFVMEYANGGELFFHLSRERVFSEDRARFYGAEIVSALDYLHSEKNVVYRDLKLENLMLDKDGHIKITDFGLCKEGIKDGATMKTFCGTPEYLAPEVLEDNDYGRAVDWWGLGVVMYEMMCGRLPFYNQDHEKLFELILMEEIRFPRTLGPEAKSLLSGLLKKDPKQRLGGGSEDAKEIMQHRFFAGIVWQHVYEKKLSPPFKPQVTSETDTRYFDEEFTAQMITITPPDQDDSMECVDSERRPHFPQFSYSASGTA
Protocol: A TTP Mosquito liquid handling instrument is used to place 125n1 of the appropriate concentration of inhibitor in 100% DMSO (for a dose response curve calculation) into each well of a 384-well plate.
The reaction is incubated for 90 min at 25 C, and then stopped by the addition of 70 μl of Stop buffer (100 mM HEPES pH 7.5, 0.015% Brij-35, 10 mM EDTA (Sigma, E7889)).
The plate is read on a Caliper LC 3000 in an Off-Chip mobility shift assay format, using the following parameters for a 12-sipper chip: screening pressure −2.3 psi, upstream voltage −500, and downstream voltage −3000. These conditions cause unphosphorylated substrate and phosphorylated product peptide to resolve as separate peaks allowing direct measurement of percentage of conversion of substrate to product. The percent conversion can be plotted against concentration of inhibitor to produce a sigmoidal dose response curve, from which an IC50 can be calculated.

Sequence of P70S6K (T412E mutant) (P23443 whole entry T412E): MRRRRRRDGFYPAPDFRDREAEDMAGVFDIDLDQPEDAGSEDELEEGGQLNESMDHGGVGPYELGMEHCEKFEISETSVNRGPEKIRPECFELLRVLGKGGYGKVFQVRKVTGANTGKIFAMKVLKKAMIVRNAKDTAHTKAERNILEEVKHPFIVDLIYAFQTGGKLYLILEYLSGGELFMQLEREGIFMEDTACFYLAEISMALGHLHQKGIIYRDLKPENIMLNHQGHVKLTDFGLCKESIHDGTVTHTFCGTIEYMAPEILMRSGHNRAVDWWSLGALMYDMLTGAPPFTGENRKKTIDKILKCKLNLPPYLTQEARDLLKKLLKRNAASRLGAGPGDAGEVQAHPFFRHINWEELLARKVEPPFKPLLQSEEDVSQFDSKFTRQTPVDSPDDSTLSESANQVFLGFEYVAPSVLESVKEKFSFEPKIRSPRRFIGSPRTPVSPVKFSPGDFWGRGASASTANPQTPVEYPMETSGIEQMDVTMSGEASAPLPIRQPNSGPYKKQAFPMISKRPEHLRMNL

Row | Compound | IC50 (P70S6K (T412E mutant)) [nM] | IC50 (His-AKT (Full Length)) [nM]
1 | Nc1ncnc(N2CCC(c3nc(-c4ccc(F)c(C(F)(F)F)c4)c[nH]3)CC2)c1Br [Compound 43, 5-Bromo-6-{4-[4-(4-fluoro-3-trifluoromethyl-phenyl)-1H-imidazol-2-yl]-piperidin-1-yl}-pyrimidin-4-ylamine] | 1.7 | 600
2 | Nc1ncnc(N2CCC(c3nc(-c4ccc(F)c(C(F)(F)F)c4)c[nH]3)CC2)c1-c1ccc(F)cc1 [Compound 44, 5-(4-Fluoro-phenyl)-6-{4-[4-(4-fluoro-3-trifluoromethyl-phenyl)-1H-imidazol-2-yl]-piperidin-1-yl}-pyrimidin-4-ylamine] | 2.4 | 9500
3 | Cn1cc(-c2ccc(F)c(C(F)(F)F)c2)nc1C1CCN(c2ncnc(N)c2-c2cncnc2)CC1 [Compound 48, 6-{4-[4-(4-Fluoro-3-trifluoromethyl-phenyl)-1-methyl-1H-imidazol-2-yl]-piperidin-1-yl}-[5,5′]bipyrimidinyl-4-ylamine] | 2.7 | 440
4 | Cn1cc(-c2ccc(F)c(C(F)(F)F)c2)nc1C1CCN(c2ncnc(N)c2-c2cccnc2)CC1 [Compound 53, 6-{4-[4-(4-Fluoro-3-trifluoromethyl-phenyl)-1-methyl-1H-imidazol-2-yl]-piperidin-1-yl}-5-pyridin-3-yl-pyrimidin-4-ylamine] | 2.3 | 880
5 | COC/C=C/c1c(N)ncnc1N1CCC(c2nc(-c3ccc(F)c(C(F)(F)F)c3)cn2C)CC1 [Compound 54, 6-{4-[4-(4-Fluoro-3-trifluoromethyl-phenyl)-1-methyl-1H-imidazol-2-yl]-piperidin-1-yl}-5-((E)-3-methoxy-propenyl)-pyrimidin-4-ylamine] | 2.5 | 740
6 | Cc1ncc(-c2c(N)ncnc2N2CCC(c3nc(-c4ccc(F)c(C(F)(F)F)c4)cn3C)CC2)s1 [Compound 55, 6-{4-[4-(4-Fluoro-3-trifluoromethyl-phenyl)-1-methyl-1H-imidazol-2-yl]-piperidin-1-yl}-5-(2-methyl-thiazol-5-yl)-pyrimidin-4-ylamine] | 2.1 | 850
7 | Nc1ncnc(N2CCC(c3nc(-c4ccc(F)c(C(F)(F)F)c4)cn3CCN3CCCC3)CC2)c1Br [Compound 56] | 3.5 | 14
8 | Nc1ncnc(N2CCC(c3nc(-c4ccc(F)c(C(F)(F)F)c4)cn3CCN3CCCC3)CC2)c1-c1ccc(F)cc1 [Compound 57] | 8.2 | 140
9 | Nc1ncnc(N2CCC(c3nc(-c4ccc(F)c(C(F)(F)F)c4)cn3CCN3CCCC3)CC2)c1-c1ccccc1F [Compound 58] | 3.7 | 75
10 | Nc1ncnc(N2CCC(c3nc(-c4ccc(F)c(C(F)(F)F)c4)cn3CCN3CCCC3)CC2)c1-c1ccc(F)c(F)c1 [Compound 59] | 9.6 | 110
11 | C=Cc1c(N)ncnc1N1CCC(c2nc(-c3ccc(F)c(C(F)(F)F)c3)cn2CCN2CCCC2)CC1 [Compound 60] | 2.5 | 6.8
12 | Nc1ncnc(N2CCC(c3nc(-c4ccc(F)c(C(F)(F)F)c4)cn3CCN3CCCCC3)CC2)c1Br [Compound 61, 5-Bromo-6-{4-[4-(4-fluoro-3-trifluoromethyl-phenyl)-1-(2-piperidin-1-yl-ethyl)-1H-imidazol-2-yl]-piperidin-1-yl}-pyrimidin-4-ylamine] | 2.8 | 9
13 | Nc1ncnc(N2CCC(c3nc(-c4ccc(F)c(C(F)(F)F)c4)cn3CCN3CCCCC3)CC2)c1-c1ccc(F)cc1 [Compound 62] | 18 | 350
14 | Nc1ncnc(N2CCC(c3nc(-c4ccc(F)c(C(F)(F)F)c4)cn3CCN3CCCCC3)CC2)c1-c1ccccc1F [Compound 63] | 5.1 | 130
15 | Nc1ncnc(N2CCC(c3nc(-c4ccc(F)c(C(F)(F)F)c4)cn3CCN3CCCCC3)CC2)c1-c1cccc(F)c1 [Compound 64] | 8.7 | 85
16 | C=Cc1c(N)ncnc1N1CCC(c2nc(-c3ccc(F)c(C(F)(F)F)c3)cn2CCN2CCCCC2)CC1 [Compound 65, 6-{4-[4-(4-Fluoro-3-trifluoromethyl-phenyl)-1-(2-piperidin-1-yl-ethyl)-1H-imidazol-2-yl]-piperidin-1-yl}-5-vinyl-pyrimidin-4-ylamine] | 5.5 | 12
17 | Nc1cc(N2CCC(c3nc(-c4ccc(F)c(C(F)(F)F)c4)cn3CCN3CCCCC3)CC2)ncn1 [Compound 66] | 110 | 410
18 | CN(C)CCn1cc(-c2ccc(F)c(C(F)(F)F)c2)nc1C1CCN(c2ncnc(N)c2Br)CC1 [Compound 67, 5-Bromo-6-{4-[1-(2-dimethylamino-ethyl)-4-(4-fluoro-3-trifluoromethyl-phenyl)-1H-imidazol-2-yl]-piperidin-1-yl}-pyrimidin-4-ylamine] | 2.2 | 9.3
19 | CN(C)CCn1cc(-c2ccc(F)c(C(F)(F)F)c2)nc1C1CCN(c2ncnc(N)c2-c2ccc(F)cc2)CC1 [Compound 68, 6-{4-[1-(2-Dimethylamino-ethyl)-4-(4-fluoro-3-trifluoromethyl-phenyl)-1H-imidazol-2-yl]-piperidin-1-yl}-5-(4-fluoro-phenyl)-pyrimidin-4-ylamine] | 7.3 | 230
20 | CN(C)CCn1cc(-c2ccc(F)c(C(F)(F)F)c2)nc1C1CCN(c2ncnc(N)c2-c2ccncc2)CC1 [Compound 69, 6-{4-[1-(2-Dimethylamino-ethyl)-4-(4-fluoro-3-trifluoromethyl-phenyl)-1H-imidazol-2-yl]-piperidin-1-yl}-5-pyridin-4-yl-pyrimidin-4-ylamine] | 3 | 43
21 | CN(C)CCn1cc(-c2ccc(F)c(C(F)(F)F)c2)nc1C1CCN(c2ncnc(N)c2-c2cnc(N)nc2)CC1 [Compound 71, 6′-{4-[1-(2-Dimethylamino-ethyl)-4-(4-fluoro-3-trifluoromethyl-phenyl)-1H-imidazol-2-yl]-piperidin-1-yl}-[5,5′]bipyrimidinyl-2,4′-diamine] | 5.6 | 450
22 | C=C(C)c1c(N)ncnc1N1CCC(c2nc(-c3ccc(F)c(C(F)(F)F)c3)cn2CCN(C)C)CC1 [Compound 72, 6-{4-[1-(2-Dimethylamino-ethyl)-4-(4-fluoro-3-trifluoromethyl-phenyl)-1H-imidazol-2-yl]-piperidin-1-yl}-5-isopropenyl-pyrimidin-4-ylamine] | 5 | 15
23 | C=Cc1c(N)ncnc1N1CCC(c2nc(-c3ccc(F)c(C(F)(F)F)c3)cn2CCN(C)C)CC1 [Compound 73, 6-{4-[1-(2-Dimethylamino-ethyl)-4-(4-fluoro-3-trifluoromethyl-phenyl)-1H-imidazol-2-yl]-piperidin-1-yl}-5-vinyl-pyrimidin-4-ylamine] | 2.7 | 7.9
24 | N#Cc1c(N)ncnc1N1CCC(c2nc(-c3ccc(F)c(C(F)(F)F)c3)cn2CCN2CCC2)CC1 [Compound 74, 4-Amino-6-{4-[1-(2-azetidin-1-yl-ethyl)-4-(4-fluoro-3-trifluoromethyl-phenyl)-1H-imidazol-2-yl]-piperidin-1-yl}-pyrimidine-5-carbonitrile] | 1.2 | 2.6
25 | N#Cc1c(N)ncnc1N1CCC(c2nc(-c3ccc(F)c(Cl)c3)cn2CCN2CCC2)CC1 [Compound 75, 4-Amino-6-{4-[1-(2-azetidin-1-yl-ethyl)-4-(3-chloro-4-fluoro-phenyl)-1H-imidazol-2-yl]-piperidin-1-yl}-pyrimidine-5-carbonitrile] | 1 | 1.9
26 | N#Cc1c(N)ncnc1N1CCC(c2nc(-c3ccc(OC(F)F)cc3)cn2CCN2CCC2)CC1 [Compound 76, 4-Amino-6-{4-[1-(2-azetidin-1-yl-ethyl)-4-(4-difluoromethoxy-phenyl)-1H-imidazol-2-yl]-piperidin-1-yl}-pyrimidine-5-carbonitrile] | 2.1 | 479
27 | N#Cc1c(N)ncnc1N1CCC(c2nc(C3CCCCC3)cn2CCN2CCC2)CC1 [Compound 77, 4-Amino-6-{4-[1-(2-azetidin-1-yl-ethyl)-4-cyclohexyl-1H-imidazol-2-yl]-piperidin-1-yl}-pyrimidine-5-carbonitrile] | 6 | 76
28 | NC(=O)c1c(N)ncnc1N1CCC(c2nc(-c3ccc(F)c(C(F)(F)F)c3)cn2CCN2CCC2)CC1 [Compound 78, 4-Amino-6-{4-[1-(2-azetidin-1-yl-ethyl)-4-(4-fluoro-3-trifluoromethyl-phenyl)-1H-imidazol-2-yl]-piperidin-1-yl}-pyrimidine-5-carboxylic acid amide] | 2 | 14
29 | NC(=O)c1c(N)ncnc1N1CCC(c2nc(-c3ccc(F)c(Cl)c3)cn2CCN2CCC2)CC1 [Compound 79, 4-Amino-6-{4-[1-(2-azetidin-1-yl-ethyl)-4-(3-chloro-4-fluoro-phenyl)-1H-imidazol-2-yl]-piperidin-1-yl}-pyrimidine-5-carboxylic acid amide] | 0.9 | 7.5
30 | NC(=O)c1c(N)ncnc1N1CCC(c2nc(C3CCCCC3)cn2CCN2CCC2)CC1 [Compound 80, 4-Amino-6-{4-[1-(2-azetidin-1-yl-ethyl)-4-cyclohexyl-1H-imidazol-2-yl]-piperidin-1-yl}-pyrimidine-5-carboxylic acid amide] | 95 | 1400
